# Test results published in PubChem BioAssay (NCI).
#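 Five compound concentrations were applied to cells in 96-well plates for 48 hours; endpoints were derived by simple linear interpolation of the resulting dose-response curve. TGI: total growth inhibition.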
# Assays:
# Assay in all cases: NCI tumour cell line growth inhibition, 48 h
# OVCAR-8 ovarian = system: OVCAR-8 ovarian
# CCRF-CEM leukemia = system: CCRF-CEM leukemia
# M14 melanoma = system: M14 melanoma
# CAKI-1 renal = system: CAKI-1 renal
# OVCAR-4 ovarian = system: OVCAR-4 ovarian
# UACC-257 melanoma = system: UACC-257 melanoma
# HT29 colon = system: HT29 colon
# KM12 colon = system: KM12 colon
# OVCAR-5 ovarian = system: OVCAR-5 ovarian
# MOLT-4 leukemia = system: MOLT-4 leukemia
# SF-539 CNS = system: SF-539 CNS
# SW-620 colon = system: SW-620 colon
# MDA-N = system: MDA-N
# SK-MEL-5 melanoma = system: SK-MEL-5 melanoma
# K-562 leukemia = system: K-562 leukemia
# HS 578T breast = system: HS 578T breast
# SF-295 CNS = system: SF-295 CNS
# NCI-H23 lung = system: NCI-H23 lung
# HL-60(TB) leukemia = system: HL-60(TB) leukemia
# MCF7 breast = system: MCF7 breast
# NCI/ADR-RES ovarian = system: NCI/ADR-RES ovarian
# A549 NSCLC = system: A549 NSCLC
# U251 CNS = system: U251 CNS
# SF-268 CNS = system: SF-268 CNS
# UACC-62 melanoma = system: UACC-62 melanoma
# HOP-62 NSCLC = system: HOP-62 NSCLC
# TK-10 renal = system: TK-10 renal
# 786-0 renal = system: 786-0 renal
# IGROV1 ovarian = system: IGROV1 ovarian
# UO-31 renal = system: UO-31 renal
# RPMI-8226 leukemia = system: RPMI-8226 leukemia
# EKVX NSCLC = system: EKVX NSCLC
# T-47D breast = system: T-47D breast
# HCT-15 colon = system: HCT-15 colon
# HOP-92 NSCLC = system: HOP-92 NSCLC
# RXF 393 renal = system: RXF 393 renal
# A498 renal = system: A498 renal
# SK-MEL-28 melanoma = system: SK-MEL-28 melanoma
# HCT-116 colon = system: HCT-116 colon
# DU-145 prostate = system: DU-145 prostate
# COLO 205 colon = system: COLO 205 colon
# ACHN renal = system: ACHN renal
# SK-OV-3 ovarian = system: SK-OV-3 ovarian
# LOX IMVI melanoma = system: LOX IMVI melanoma
# PC-3 prostate = system: PC-3 prostate
# HCC-2998 colon = system: HCC-2998 colon
# SN12C renal = system: SN12C renal
# MDA-MB-435 = system: MDA-MB-435
# SR leukemia = system: SR leukemia
# SNB-75 CNS = system: SNB-75 CNS
# OVCAR-3 ovarian = system: OVCAR-3 ovarian
# NCI-H460 lung = system: NCI-H460 lung
# NCI-H522 lung = system: NCI-H522 lung
# MDA-MB-231 breast = system: MDA-MB-231 breast
# SNB-19 CNS = system: SNB-19 CNS
# SK-MEL-2 melanoma = system: SK-MEL-2 melanoma
# MALME-3M melanoma = system: MALME-3M melanoma
compound,measurement,setting,value
O=CCOCc1cc2c(cc1Br)OCO2,TGI,OVCAR-8 ovarian,52.5 µM
same,TGI,CCRF-CEM leukemia,47.7 µM
same,TGI,M14 melanoma,46.7 µM
same,TGI,CAKI-1 renal,42.7 µM
same,TGI,OVCAR-4 ovarian,45.8 µM
same,TGI,UACC-257 melanoma,> 100 µM
same,TGI,HT29 colon,38.6 µM
same,TGI,KM12 colon,> 100 µM
same,TGI,OVCAR-5 ovarian,> 100 µM
same,TGI,MOLT-4 leukemia,> 100 µM
same,TGI,SF-539 CNS,50.2 µM
same,TGI,SW-620 colon,50.3 µM
same,TGI,MDA-N,> 100 µM
same,TGI,SK-MEL-5 melanoma,36.1 µM
same,TGI,K-562 leukemia,> 100 µM
same,TGI,HS 578T breast,44.7 µM
same,TGI,SF-295 CNS,> 100 µM
same,TGI,NCI-H23 lung,28.7 µM
same,TGI,HL-60(TB) leukemia,48.8 µM
same,TGI,MCF7 breast,42.9 µM
same,TGI,NCI/ADR-RES ovarian,40.4 µM
same,TGI,A549 NSCLC,> 100 µM
same,TGI,U251 CNS,90.5 µM
same,TGI,SF-268 CNS,47.8 µM
same,TGI,UACC-62 melanoma,> 100 µM
same,TGI,HOP-62 NSCLC,> 100 µM
same,TGI,TK-10 renal,> 100 µM
same,TGI,786-0 renal,36.7 µM
same,TGI,IGROV1 ovarian,> 100 µM
same,TGI,UO-31 renal,42.9 µM
same,TGI,RPMI-8226 leukemia,> 100 µM
same,TGI,EKVX NSCLC,> 100 µM
same,TGI,T-47D breast,61.6 µM
same,TGI,HCT-15 colon,46.1 µM
same,TGI,HOP-92 NSCLC,> 100 µM
same,TGI,RXF 393 renal,> 100 µM
same,TGI,A498 renal,> 100 µM
same,TGI,SK-MEL-28 melanoma,> 100 µM
same,TGI,HCT-116 colon,45 µM
same,TGI,DU-145 prostate,> 100 µM
same,TGI,COLO 205 colon,> 100 µM
same,TGI,ACHN renal,55.1 µM
same,TGI,SK-OV-3 ovarian,> 100 µM
same,TGI,LOX IMVI melanoma,47.1 µM
same,TGI,PC-3 prostate,59.6 µM
same,TGI,HCC-2998 colon,> 100 µM
same,TGI,SN12C renal,> 100 µM
same,TGI,MDA-MB-435,> 100 µM
same,TGI,SR leukemia,68.1 µM
same,TGI,SNB-75 CNS,> 100 µM
same,TGI,OVCAR-3 ovarian,35.7 µM
same,TGI,NCI-H460 lung,> 100 µM
same,TGI,NCI-H522 lung,33.3 µM
same,TGI,MDA-MB-231 breast,44.4 µM
CO[C@]12CC(=O)C3(C(C[C@H]4CC5CCC6=CC(=O)CC[C@]6(OC(C)=O)C5C[C@@]43C)C1)C1C[C@H]3[C@@H]4CCC5=CC(=O)CC[C@]5(OC(C)=O)[C@H]4CC[C@]3(C)C12 (some centres undefined),TGI,OVCAR-8 ovarian,> 100 µM
same,TGI,CCRF-CEM leukemia,> 100 µM
same,TGI,M14 melanoma,> 100 µM
same,TGI,CAKI-1 renal,> 100 µM
same,TGI,OVCAR-4 ovarian,> 100 µM
same,TGI,UACC-257 melanoma,> 100 µM
same,TGI,HT29 colon,> 100 µM
same,TGI,OVCAR-5 ovarian,> 100 µM
same,TGI,MOLT-4 leukemia,> 100 µM
same,TGI,SF-539 CNS,> 100 µM
same,TGI,SW-620 colon,> 100 µM
same,TGI,MDA-N,> 100 µM
same,TGI,SK-MEL-5 melanoma,> 100 µM
same,TGI,K-562 leukemia,> 100 µM
same,TGI,HS 578T breast,> 100 µM
same,TGI,SF-295 CNS,> 100 µM
same,TGI,NCI-H23 lung,> 100 µM
same,TGI,HL-60(TB) leukemia,> 100 µM
same,TGI,MCF7 breast,> 100 µM
same,TGI,NCI/ADR-RES ovarian,> 100 µM
same,TGI,A549 NSCLC,> 100 µM
same,TGI,U251 CNS,> 100 µM
same,TGI,SF-268 CNS,> 100 µM
same,TGI,UACC-62 melanoma,> 100 µM
same,TGI,HOP-62 NSCLC,> 100 µM
same,TGI,TK-10 renal,> 100 µM
same,TGI,786-0 renal,> 100 µM
same,TGI,IGROV1 ovarian,> 100 µM
same,TGI,UO-31 renal,> 100 µM
same,TGI,RPMI-8226 leukemia,> 100 µM
same,TGI,EKVX NSCLC,> 100 µM
same,TGI,T-47D breast,> 100 µM
same,TGI,HCT-15 colon,> 100 µM
same,TGI,HOP-92 NSCLC,> 100 µM
same,TGI,SNB-19 CNS,> 100 µM
same,TGI,SK-MEL-2 melanoma,> 100 µM
same,TGI,A498 renal,> 100 µM
same,TGI,SK-MEL-28 melanoma,> 100 µM
same,TGI,HCT-116 colon,> 100 µM
same,TGI,DU-145 prostate,> 100 µM
same,TGI,COLO 205 colon,56.7 µM
same,TGI,ACHN renal,> 100 µM
same,TGI,SK-OV-3 ovarian,> 100 µM
same,TGI,LOX IMVI melanoma,> 100 µM
same,TGI,PC-3 prostate,> 100 µM
same,TGI,HCC-2998 colon,> 100 µM
same,TGI,SN12C renal,> 100 µM
same,TGI,MDA-MB-435,> 100 µM
same,TGI,SR leukemia,> 100 µM
same,TGI,SNB-75 CNS,> 100 µM
same,TGI,OVCAR-3 ovarian,> 100 µM
same,TGI,NCI-H460 lung,> 100 µM
same,TGI,MALME-3M melanoma,> 100 µM
same,TGI,NCI-H522 lung,> 100 µM
same,TGI,MDA-MB-231 breast,74.7 µM
